# Data taken from US11844868B2, “Dry powder composition for peroral administration” (VICORE PHARMA AB, priority 2020, dated 2023).
# What was measured:
# Assay type in all cases: physicochemical
# [1] = Stability of aqueous solutions of C21 (free C21 1 mg/mL in 0.9% NaCl pH 9.4; sodium salt likewise) under four storage conditions, HPLC; conditions: for light-induced degradation: aqueous solution, RT/light; for chemical stability: solution stored in dark at 5° C., RT and 40° C. for four weeks
# Procedure: The stability of free C21 in 0.9% NaCl pH 9.4 was investigated.
# Solutions of 1 mg/mL of C21 were studied for four weeks under four different storage conditions. The solution was filtered through a 0.22 sterile syringe filter to minimize bacterial growth during the stability test. The samples were analysed by HPLC for purity.
# The results are summarised in Table 3 below, in which the amount of C21 is given as a percentage of the initial amount of drug. Solution pHs were also measured and are shown within parenthesis in Table 3.
# The stability of the sodium salt of C21 was also investigated under the same storage conditions.
# At the time for analysis of the one week samples, it was noted that the heating cabinet for storage of samples at 40° C. was broken. In view of this, these samples were thereafter kept at room temperature for three days.
# [2] = Solubility of C21 sodium salt in aqueous vehicles
# Procedure: In this experiment, C21 sodium salt (Syntagon AB) was added to the vehicle, small amounts at a time. About 20-30 mg of the sodium salt was easily dissolved in all the vehicles tested. Salt was continuously added to the same sample in an attempt to obtain a saturated solution. In this way, higher amounts, such as 40-60 mg/mL could be dissolved. The solubility is probably even higher than this in the vehicles tested, but this was not established in view of the limited amount of drug compound available.
# [3] = Excipient compatibility study, 60° C. for 12 days (related impurities)
# Procedure: The excipients used in the capsules in Comparative Example 3 above were evaluated along with some additional ones (see Table 8 below).
# C21 (sodium salt) used in these experiments was ground and passed through a 300 μm sieve. Mixtures of each excipient and C21 were prepared by thorough mixing in the amounts specified in Table 8. The ratio of C21 to various fillers (D-mannitol, MCC, lactose monohydrate and HPMC) was adapted to give a volume equivalent to the larger part of a capsule.
# Three capsules of each type were filled with C21. All preparations were stored under accelerated stability conditions at 60° C. for 12 days prior to analysis.
# In addition to the disintegrants (sodium starch glycolate and croscarmellose sodium) mentioned above, crospovidone of two different types (Kollidon® CL (Type A), and Kollidon® CL-SF (Type B) (both BASF) were tested.
# Mixtures of 130 mg crospovidone and 200 mg C21 were prepared and were thoroughly mixed using a Turbula mixer for 10 minutes. All of these preparations were analysed at time zero and after storage at accelerated stability conditions at 60° C. for 12 days.
# [4] = Accelerated stability of C21/mannitol powder mixtures, 60° C. for 12 days
# Procedure: C21 sodium salt was used together with 7 different types of mannitol from two different manufacturers.
# C21 and mannitol were added to glass flasks and were mixed together using a Turbula mixer. At a mixing time of 30 minutes, each flask was sampled for homogeneity and related impurities were analysed.
# An aliquot of each powder mixture was also subjected to 60° C. for 12 days in a stability analysis. The nominal content of C21 was 7.4% w/w (calculated as free C21) for all mannitol mixtures except one, where an additional strength of 14.8% w/w was also tested.
compound,measurement,setting,value
CCCCOC(=O)[N-]S(=O)(=O)c1sc(CC(C)C)cc1-c1ccc(Cn2ccnc2)cc1.[Na+] [C21 sodium salt],"Amount of Free C21, % of initial","[1]; 5° C., dark, 1 week",108 % of initial
same,Solution pH (within parenthesis),"[1]; 5° C., dark, 1 week",8.5
same,"Amount of Free C21, % of initial","[1]; 5° C., dark, 2 weeks",113 % of initial
same,Solution pH (within parenthesis),"[1]; 5° C., dark, 2 weeks",8.4
same,"Amount of Free C21, % of initial","[1]; 5° C., dark, 3 weeks",113 % of initial
same,Solution pH (within parenthesis),"[1]; 5° C., dark, 3 weeks",8.5
same,"Amount of Free C21, % of initial","[1]; 5° C., dark, 4 weeks",112 % of initial
same,Solution pH (within parenthesis),"[1]; 5° C., dark, 4 weeks",8.5
same,"Amount of Free C21, % of initial","[1]; 5° C., dark, Initial",100 % of initial
same,Solution pH (within parenthesis),"[1]; 5° C., dark, Initial",8.3
same,"Amount of Free C21, % of initial","[1]; 40° C., dark, 1 week",111 % of initial
same,Solution pH (within parenthesis),"[1]; 40° C., dark, 1 week",8.6
same,"Amount of Free C21, % of initial","[1]; 40° C., dark, 2 weeks",111 % of initial
same,Solution pH (within parenthesis),"[1]; 40° C., dark, 2 weeks",8.5
same,"Amount of Free C21, % of initial","[1]; 40° C., dark, 3 weeks",109 % of initial
same,Solution pH (within parenthesis),"[1]; 40° C., dark, 3 weeks",8.7
same,"Amount of Free C21, % of initial","[1]; 40° C., dark, 4 weeks",118 % of initial
same,Solution pH (within parenthesis),"[1]; 40° C., dark, 4 weeks",8.1
same,"Amount of Free C21, % of initial","[1]; 40° C., dark, Initial",100 % of initial
same,Solution pH (within parenthesis),"[1]; 40° C., dark, Initial",8.3
same,"Amount of Free C21, % of initial","[1]; RT, dark, 1 week",115 % of initial
same,Solution pH (within parenthesis),"[1]; RT, dark, 1 week",8.6
same,"Amount of Free C21, % of initial","[1]; RT, dark, 2 weeks",110 % of initial
same,Solution pH (within parenthesis),"[1]; RT, dark, 2 weeks",8.8
same,"Amount of Free C21, % of initial","[1]; RT, dark, 3 weeks",111 % of initial
same,Solution pH (within parenthesis),"[1]; RT, dark, 3 weeks",8.8
same,"Amount of Free C21, % of initial","[1]; RT, dark, 4 weeks",112 % of initial
same,Solution pH (within parenthesis),"[1]; RT, dark, 4 weeks",8.2
same,"Amount of Free C21, % of initial","[1]; RT, dark, Initial",100 % of initial
same,Solution pH (within parenthesis),"[1]; RT, dark, Initial",8.3
same,"Amount of Free C21, % of initial","[1]; RT, light, 1 week",108 % of initial
same,Solution pH (within parenthesis),"[1]; RT, light, 1 week",(8.4)
same,"Amount of Free C21, % of initial","[1]; RT, light, 2 weeks",96 % of initial
same,Solution pH (within parenthesis),"[1]; RT, light, 2 weeks",(8.0)
same,"Amount of Free C21, % of initial","[1]; RT, light, 3 weeks",72 % of initial
same,Solution pH (within parenthesis),"[1]; RT, light, 3 weeks",(8.3)
same,"Amount of Free C21, % of initial","[1]; RT, light, 4 weeks",9 % of initial
same,Solution pH (within parenthesis),"[1]; RT, light, 4 weeks",(7.3)
same,"Amount of Free C21, % of initial","[1]; RT, light, Initial",100 % of initial
same,Solution pH (within parenthesis),"[1]; RT, light, Initial",(8.3)
same,light-induced degradation,[1],light-induced degradation occurs
same,chemical stability,[1],chemically stable
same,amount that could be dissolved,"[2]; salt continuously added, vehicles tested, saturation not established",40 to 60 mg/mL
same,solubility compared with free C21,[2]; similar experiment,considerably higher than free C21
same,Concentration (solubility),"[2]; vehicle 0.9% NaCl, pH 9.3",>40 mg/mL
same,Concentration (solubility),"[2]; vehicle H2O, pH 9.8",>65 mg/mL
same,Concentration (solubility),"[2]; vehicle PBS pH 7.4, measured pH 9.4",>40 mg/mL
same,Degradation: Sum of impurities (≥0.05%),[3],0.26%
same,Individual Impurity 1,[3],0.26 area %
same,degradation of C21,[3],No degradation
same,Impurities ≥0.05% Formed: 1,[4],0.26 area %
"CCCCOC(=O)NS(=O)(=O)c1sc(CC(C)C)cc1-c1ccc(Cn2ccnc2)cc1 [free C21, N-butyloxycarbonyl-3-(4-imidazol-1-ylmethylphenyl)-5-iso-butylthiophene-2-sulfonamide]","Amount of Free C21, % of initial","[1]; 5° C., dark, 1 week",101 % of initial
same,Solution pH (within parenthesis),"[1]; 5° C., dark, 1 week",9.2
same,"Amount of Free C21, % of initial","[1]; 5° C., dark, 2 weeks",107 % of initial
same,Solution pH (within parenthesis),"[1]; 5° C., dark, 2 weeks",9.2
same,"Amount of Free C21, % of initial","[1]; 5° C., dark, 3 weeks",108 % of initial
same,Solution pH (within parenthesis),"[1]; 5° C., dark, 3 weeks",9.1
same,"Amount of Free C21, % of initial","[1]; 5° C., dark, 4 weeks",108 % of initial
same,Solution pH (within parenthesis),"[1]; 5° C., dark, 4 weeks",9.2
same,"Amount of Free C21, % of initial","[1]; 5° C., dark, Initial",100 % of initial
same,Solution pH (within parenthesis),"[1]; 5° C., dark, Initial",9.4
same,"Amount of Free C21, % of initial","[1]; 40° C., dark, 1 week",101 % of initial
same,Solution pH (within parenthesis),"[1]; 40° C., dark, 1 week",9.0
same,"Amount of Free C21, % of initial","[1]; 40° C., dark, 2 weeks",111 % of initial
same,Solution pH (within parenthesis),"[1]; 40° C., dark, 2 weeks",8.6
same,"Amount of Free C21, % of initial","[1]; 40° C., dark, 3 weeks",106 % of initial
same,Solution pH (within parenthesis),"[1]; 40° C., dark, 3 weeks",8.7
same,"Amount of Free C21, % of initial","[1]; 40° C., dark, 4 weeks",107 % of initial
same,Solution pH (within parenthesis),"[1]; 40° C., dark, 4 weeks",8.7
same,"Amount of Free C21, % of initial","[1]; 40° C., dark, Initial",100 % of initial
same,Solution pH (within parenthesis),"[1]; 40° C., dark, Initial",9.4
same,"Amount of Free C21, % of initial","[1]; RT, dark, 1 week",97 % of initial
same,Solution pH (within parenthesis),"[1]; RT, dark, 1 week",(9.2)
same,"Amount of Free C21, % of initial","[1]; RT, dark, 2 weeks",109 % of initial
same,Solution pH (within parenthesis),"[1]; RT, dark, 2 weeks",(8.9)
same,"Amount of Free C21, % of initial","[1]; RT, dark, 3 weeks",105 % of initial
same,Solution pH (within parenthesis),"[1]; RT, dark, 3 weeks",(9.0)
same,"Amount of Free C21, % of initial","[1]; RT, dark, 4 weeks",106 % of initial
same,Solution pH (within parenthesis),"[1]; RT, dark, 4 weeks",(8.9)
same,"Amount of Free C21, % of initial","[1]; RT, dark, Initial",100 % of initial
same,Solution pH (within parenthesis),"[1]; RT, dark, Initial",(9.4)
same,"Amount of Free C21, % of initial","[1]; RT, light, 1 week",96 % of initial
same,Solution pH (within parenthesis),"[1]; RT, light, 1 week",(9.0)
same,"Amount of Free C21, % of initial","[1]; RT, light, 2 weeks",44 % of initial
same,Solution pH (within parenthesis),"[1]; RT, light, 2 weeks",(8.0)
same,"Amount of Free C21, % of initial","[1]; RT, light, 3 weeks",96 % of initial
same,Solution pH (within parenthesis),"[1]; RT, light, 3 weeks",(8.5)
same,"Amount of Free C21, % of initial","[1]; RT, light, 4 weeks",13 % of initial
same,Solution pH (within parenthesis),"[1]; RT, light, 4 weeks",(7.7)
same,"Amount of Free C21, % of initial","[1]; RT, light, Initial",100 % of initial
same,Solution pH (within parenthesis),"[1]; RT, light, Initial",(9.4)
same,light-induced degradation,[1],light-induced degradation occurs
same,total impurity peak area,"[1]; free C21 solution, samples stored at 5° C., RT/dark and 40° C.",around 2.5 area % of C21 peak area
same,chemical stability,[1],chemically stable
